Columns and labels:
[1] = Deionized water-solidifying test (base for solidifying moisture-containing compositions); type: physicochemical; conditions: 25° C.; for (Appearance) / Condition: after 20 hours from the dissolution; for Time of solidification completed / Time of solidification started: monitored for 2 hours
From the text: After completing the dissolution, each test solution was further stirred for four minutes and then the stirring was stopped. Successively, each test solution was left to stand and a solidification of the test solution by the crystallization of hydrous crystalline maltose was monitored macroscopically for two hours. In the cases of the solidified samples, the time of starting the crystallization and that of completing the solidification were checked. (However, the test solution dissolving 18.8 g of crystal was stopped stirring at three minutes after the dissolution because the crystallization of hydrous crystalline maltose was started immediately.) After monitoring macroscopically for two hours, each vessel containing any one of the sample solutions was closed and further left to stand for 18 hours. Then, the condition (appearance) of the test samples after 20 hours from the dissolution was monitored macroscopically and evaluated by the following three phases: (1) clear solution; (2) clouded solution; and (3) solidified. The samples prepared by using 10.0 g, 11.5 g, 13.3 g, or 18.8 g of the anhydrous crystalline α-maltose used in Example 2, as a substitute of the test samples, were treated by the same procedure as controls. The test was carried out in a room where a temperature was kept at 25° C. The results of each sample after 2 and 20 hours are shown in Table 5 and FIG. 13, and Table 6 and FIG. 14, respectively.

[2] = Specific surface area by nitrogen adsorption isotherms (BET); type: physicochemical; conditions: BET method, listed as anhydrous crystalline α-maltose of Control 2
Method: About 3 g of the anhydrous crystalline β-maltose, obtained in Example 1, was dried in the apparatus under a reduced pressure at about 40° C. for about 15 hours as a pretreatment, and then used for the measurement of specific surface area by the nitrogen adsorption isotherms. The result was analyzed by conventional BET (Brunnauer, Emmet, and Teller) method.

[3] = Powderizing test by admixing dehydrated ethanol; type: physicochemical; conditions: listed as Anhydrous crystalline α-maltose (Control)
Method: The usefulness of the crystal was judged by the amount of deionized water added to the limit of keeping the powder form. The form of the powder was evaluated by the following four phases: (1) powder; (2) lump (it keeps a powder form while it comprises lumps); (3) cake; and (4) paste. As a control, the anhydrous crystalline α-maltose used in Example 2 was treated by the same procedure. The test was carried out in a room where the temperature was kept at 25° C. The results of the test and the form of each sample after admixing with 1.25 ml of deionized water are shown in Table 7 and FIG. 15, respectively. […] The results of the test and the form of each sample after admixing with 6 ml of dehydrated ethanol are shown in Table 8 and FIG. 16, respectively.

[4] = mercury filling method
[5] = Hygroscopicity test (moisture content under controlled relative humidity); type: physicochemical; conditions: 27° C., listed as AC α-Mal (Control 2)
Method: Moisture contents of the samples at respective periods were measured based on the change of weight from the start of the test. The moisture contents of the samples at the start of the test were measured by Karl Fischer's method.

[6] = Powderizing test by admixing deionized water; type: physicochemical; conditions: 25° C., listed as Anhydrous crystalline α-maltose (Control)
Method: The usefulness of the crystal was judged by the amount of deionized water added to the limit of keeping the powder form. The form of the powder was evaluated by the following four phases: (1) powder; (2) lump (it keeps a powder form while it comprises lumps); (3) cake; and (4) paste. As a control, the anhydrous crystalline α-maltose used in Example 2 was treated by the same procedure. The test was carried out in a room where the temperature was kept at 25° C. The results of the test and the form of each sample after admixing with 1.25 ml of deionized water are shown in Table 7 and FIG. 15, respectively.

[7] = 10.0 g dissolved in 10 g deionized water (50.0%)
[8] = 10.0 g dissolved in 10 g deionized water (calc. conc. 50.0%)
[9] = 11.5 g dissolved in 10 g deionized water (53.5%)
[10] = 11.5 g dissolved in 10 g deionized water (calc. conc. 53.5%)
[11] = 13.3 g dissolved in 10 g deionized water (57.0%)
[12] = 13.3 g dissolved in 10 g deionized water (calc. conc. 57.0%)
[13] = 18.8 g dissolved in 10 g deionized water (calc. conc. 65.0%)
[14] = control values originate from space between crystal particles, not pores

OC[C@H]1O[C@H](O[C@H]2[C@H](O)[C@@H](O)[C@H](O)O[C@@H]2CO)[C@H](O)[C@@H](O)[C@@H]1O [anhydrous crystalline α-maltose]
(Appearance) [1, 7]: (Clear solution)
Condition [1, 7]: Not solidified
Time of solidification completed [1, 8]: Not solidified
Time of solidification started [1, 8]: Not solidified
(Appearance) [1, 9]: (Clear solution)
Condition [1, 9]: Not solidified
Time of solidification completed [1, 10]: Not solidified
Time of solidification started [1, 10]: Not solidified
(Appearance) [1, 11]: (Clouded solution)
Condition [1, 11]: Not solidified
Time of solidification completed [1, 12]: Not solidified
Time of solidification started [1, 12]: Not solidified
Condition ([1]; 18.8 g dissolved in 10 g deionized water (65.0%)): Solidified
Time of solidification completed [1, 13]: Not solidified
Time of solidification started [1, 13]: Not solidified
Specific surface area [2]: 0.48 m^2/g
Form of the powder after admixing dehydrated ethanol ([3]; 10 g crystal + 3.5 ml ethanol (27.5 v/w %)): Lump form
Form of the powder after admixing dehydrated ethanol ([3]; 10 g crystal + 4.0 ml ethanol (30.5 v/w %)): Cake form
Form of the powder after admixing dehydrated ethanol ([3]; 10 g crystal + 4.5 ml ethanol (33.3 v/w %)): Cake form
Form of the powder after admixing dehydrated ethanol ([3]; 10 g crystal + 5.0 ml ethanol (36.0 v/w %)): Cake form
Form of the powder after admixing dehydrated ethanol ([3]; 10 g crystal + 5.5 ml ethanol (38.5 v/w %)): Paste form
Form of the powder after admixing dehydrated ethanol ([3]; 10 g crystal + 6.0 ml ethanol (40.9 v/w %)): Paste form
Intrusion volume ([4]; initial pressure 15 kPa): (No pore)
Median pore diameter [4, 14]: 13.00 μm
Mode pore diameter [4, 14]: 20.70 μm
Moisture content of samples ([5]; RH 47% (lithium nitrate), 0 hour (start, Karl Fischer)): 0.74 %, w/w
Moisture content of samples ([5]; RH 47% (lithium nitrate), 2 hours): 0.70 %, w/w
Moisture content of samples ([5]; RH 47% (lithium nitrate), 4 hours): 0.70 %, w/w
Moisture content of samples ([5]; RH 47% (lithium nitrate), 24 hours): 0.65 %, w/w
Moisture content of samples ([5]; RH 47% (lithium nitrate), 96 hours): 0.71 %, w/w
Moisture content of samples ([5]; RH 47% (lithium nitrate), 192 hours): 0.70 %, w/w
Moisture content of samples ([5]; RH 58% (sodium bromide), 0 hour (start, Karl Fischer)): 0.74 %, w/w
Moisture content of samples ([5]; RH 58% (sodium bromide), 2 hours): 0.74 %, w/w
Moisture content of samples ([5]; RH 58% (sodium bromide), 4 hours): 0.76 %, w/w
Moisture content of samples ([5]; RH 58% (sodium bromide), 6 hours): 0.80 %, w/w
Moisture content of samples ([5]; RH 58% (sodium bromide), 8 hours): 0.79 %, w/w
Moisture content of samples ([5]; RH 58% (sodium bromide), 24 hours): 0.83 %, w/w
Moisture content of samples ([5]; RH 58% (sodium bromide), 96 hours): 0.98 %, w/w
Moisture content of samples ([5]; RH 58% (sodium bromide), 192 hours): 0.91 %, w/w
Moisture content of samples ([5]; RH 75% (sodium chloride), 0 hour (start, Karl Fischer)): 0.74 %, w/w
Moisture content of samples ([5]; RH 75% (sodium chloride), 2 hours): 1.18 %, w/w
Moisture content of samples ([5]; RH 75% (sodium chloride), 4 hours): 2.44 %, w/w
Moisture content of samples ([5]; RH 75% (sodium chloride), 6 hours): 2.88 %, w/w
Moisture content of samples ([5]; RH 75% (sodium chloride), 8 hours): 3.14 %, w/w
Moisture content of samples ([5]; RH 75% (sodium chloride), 24 hours): 3.84 %, w/w
Moisture content of samples ([5]; RH 75% (sodium chloride), 96 hours): 3.85 %, w/w
Moisture content of samples ([5]; RH 75% (sodium chloride), 192 hours): 4.49 %, w/w
Moisture content of samples ([5]; RH 90% (barium chloride), 0 hour (start, Karl Fischer)): 0.74 %, w/w
Moisture content of samples ([5]; RH 90% (barium chloride), 2 hours): 1.79 %, w/w
Moisture content of samples ([5]; RH 90% (barium chloride), 4 hours): 4.30 %, w/w
Moisture content of samples ([5]; RH 90% (barium chloride), 6 hours): 6.29 %, w/w
Moisture content of samples ([5]; RH 90% (barium chloride), 8 hours): 7.82 %, w/w
Moisture content of samples ([5]; RH 90% (barium chloride), 24 hours): 15.78 %, w/w
Moisture content of samples ([5]; RH 90% (barium chloride), 96 hours): 17.77 %, w/w
Moisture content of samples ([5]; RH 90% (barium chloride), 192 hours): 14.38 %, w/w
Form of the powder after admixing deionized water ([6]; 10 g crystal + 0.75 ml water (moisture content 7.0%, w/w)): Lump form
Form of the powder after admixing deionized water ([6]; 10 g crystal + 1.00 ml water (moisture content 9.1%, w/w)): Cake form
Form of the powder after admixing deionized water ([6]; 10 g crystal + 1.25 ml water (moisture content 11.1%, w/w)): Paste form

Reference: patent publication US8168779B2, “Anhydrous crystalline β-maltose, its preparation and uses” (priority 2006, dated 2012)
